Data published in patent publication US20040266823A1 (priority 2001, published 2004).
Counter-ions that a name gives are not always drawn.

Biological target: recombinant human CCR5 receptor (Homo sapiens, UniProt P51681)
Experiment: MIP-1α radioligand binding assay (scintillation proximity)
Details: displacement of 0.1 nM iodinated MIP-1α; membranes from Chinese hamster ovary cells; average if tested more than once
Description: The ability of compounds to inhibit the binding of MIP-1α was assessed by an in vitro radioligand binding assay. Membranes were prepared from Chinese hamster ovary cells which expressed the recombinant human CCR5 receptor. These membranes were incubated with 0.1 nM iodinated MIP-1α, scintillation proximity beads and various concentrations of the compounds of the invention in 96 well plates. The amount of iodinated MIP-1α bound to the receptor was determined by scintillation counting. Competition curves were obtained for compounds and the concentration of compound which displaced 50% of bound iodinated MIP-1α was calculated (IC50).
In Table II the results are presented as Pic50 values. A Pic50 value is the negative log (to base 10) of the IC50 result, so an IC50 of 1 μM (that is 1×10^−6M) gives a Pic50 of 6. If a compounds was tested more than once then the data below is an average of the probative tests results.

Chain of recombinant human CCR5 receptor (P51681 whole entry): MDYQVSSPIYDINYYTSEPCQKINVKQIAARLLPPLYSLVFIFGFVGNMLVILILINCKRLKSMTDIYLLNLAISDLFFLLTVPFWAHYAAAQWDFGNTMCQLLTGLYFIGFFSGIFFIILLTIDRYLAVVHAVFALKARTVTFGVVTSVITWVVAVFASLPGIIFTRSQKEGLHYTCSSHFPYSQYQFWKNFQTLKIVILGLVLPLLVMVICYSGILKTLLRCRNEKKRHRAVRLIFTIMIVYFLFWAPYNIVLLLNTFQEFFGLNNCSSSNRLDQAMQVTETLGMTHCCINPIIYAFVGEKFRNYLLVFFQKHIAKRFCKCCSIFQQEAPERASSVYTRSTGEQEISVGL

Structure (SMILES) | IC50 | Pic50
CCN(C(=O)Cc1ccc(S(C)(=O)=O)cc1)C1CCN(CC[C@H](NC(=O)c2ccc(=O)[nH]c2)c2ccccc2)CC1 [compound 89] | 0.0575 µM | 
CCN(C(=O)Cc1ccc(S(C)(=O)=O)cc1)C1CCN(CC[C@H](NC(=O)CC(F)(F)F)c2cccc(F)c2)CC1 [Compound No. 108, (S)-N-{1-[3-(3,3,3-trifluoropropionylamino)-3-(3-fluorophenyl)propyl]piperidinyl}-N-ethyl-2-(4-methanesulfonyl-phenyl)acetamide] |  | 8.02
CCN(C(=O)Cc1ccc(S(C)(=O)=O)cc1)C1CCN(CC[C@H](NC(=O)c2cccc(C#N)c2)c2ccccc2)CC1 [Compound No. 93, (S)-N-[1-(3-phenyl-3-[3-cyanobenzoylamino]propyl)-4-piperidinyl]-N-ethyl-4-methanesulfonylphenylacetamide] | 0.0162 µM | 
CCN(C(=O)Cc1ccc(S(C)(=O)=O)cc1)C1CCN(C(C)C[C@H](NC(=O)C2CCOCC2)c2ccccc2)CC1 (stereo partly drawn) [Compound No. 95, (3′S)-N-[1-(1-methyl-3-phenyl-3-[tetrahydropyran-4-yl-carboxyamino]propyl)-4-piperidinyl]-N-ethyl-4-methanesulfonylphenylacetamide] | 0.000191 µM | 
CCN(C(=O)Cc1ccc(S(C)(=O)=O)cc1)C1CCN(CC[C@H](NC(=O)c2ccc(C(F)(F)F)cc2)c2ccccc2)CC1 [compound 102] | 0.00955 µM | 
CCN(C(=O)Cc1ccc(S(C)(=O)=O)cc1)C1CCN(CC[C@H](NC(=O)c2ccc(C(F)(F)F)o2)c2ccccc2)CC1 [compound 88] | 0.0331 µM | 
CCN(C(=O)Cc1ccc(S(C)(=O)=O)cc1)C1CCN(CC[C@H](NC(=O)CC(F)(F)F)c2ccccc2)CC1 [Compound No. 86, (S)-N-[1-(3-phenyl-3-[3,3,3-trifluoropropionylamino]propyl)-4-piperidinyl]-N-ethyl-4-methanesulfonylphenylacetamide hydrochloride] | 0.002 µM | 
CCN(C(=O)Cc1ccc(S(C)(=O)=O)cc1)C1CCN(CC[C@H](NC(=O)c2cccc(F)c2)c2cccc(F)c2)CC1 [Compound No. 104, (S)-N-{1-[3-(3-fluorobenzoylamino)-3-(3-fluorophenyl)propyl]piperidin-4-yl}-N-ethyl-2-(4-methanesulfonyl-phenyl)acetamide] | 0.000447 µM | 
CCN(C(=O)Cc1ccc(S(C)(=O)=O)cc1)C1CCN(CC[C@H](NC(=O)N2CCCCC2)c2cccc(F)c2)CC1 [compound 107] | 0.000933 µM | 
CCN(C(=O)Cc1ccc(S(C)(=O)=O)cc1)C1CCN(CC[C@H](NC(=O)c2ccc(NC(C)=O)cc2)c2ccccc2)CC1 [compound 97] | 0.0269 µM | 
CCN(C(=O)Cc1ccc(S(C)(=O)=O)cc1)C1CCN(CC[C@H](NC(=O)c2cc(F)cc(F)c2)c2ccccc2)CC1 [compound 82] | 0.02 µM | 
CCN(C(=O)Cc1ccc(S(C)(=O)=O)cc1)C1CCN(CC[C@H](NC(=O)c2ccc(S(C)(=O)=O)cc2)c2ccccc2)CC1 [compound 99] | 0.0407 µM | 
CCN(C(=O)Cc1ccc(S(C)(=O)=O)cc1)C1CCN(CC[C@H](NC(=O)c2ccc[nH]2)c2ccccc2)CC1 [compound 53] | 0.0155 µM | 
CCN(C(=O)Cc1ccc(S(C)(=O)=O)cc1)C1CCN(CC[C@H](NC(=O)c2cccc(S(C)(=O)=O)c2)c2ccccc2)CC1 [compound 98] | 0.0145 µM | 
CCN(C(=O)Cc1ccc(S(C)(=O)=O)cc1)C1CCN(CC[C@H](NC(=O)c2cnccc2C(F)(F)F)c2ccccc2)CC1.Cl |  | 7.32
CCN(C(=O)Cc1ccc(S(C)(=O)=O)cc1)C1CCN(CC[C@H](NC(=O)CCC(F)(F)F)c2ccccc2)CC1 [Compound No. 96, (S)-N-[1-(3-phenyl-3-[4,4,4-trifluorobutyrylamino]propyl)-4-piperidinyl]-N-ethyl-4-methanesulfonylphenylacetamide hydrochloride] | 0.00234 µM | 
CCN(C(=O)Cc1ccc(S(C)(=O)=O)cc1)C1CCN(CC[C@H](NC(=O)c2ccoc2)c2ccccc2)CC1 [compound 52] | 0.0141 µM | 
CCN(C(=O)Cc1ccc(S(C)(=O)=O)cc1)C1CCN(CC[C@H](NC(=O)c2[nH]nnc2C(C)C)c2ccccc2)CC1 [compound 92] | 0.631 µM | 

Structure (SMILES) | IC50 | Pic50
CCN(C(=O)Cc1ccc(S(C)(=O)=O)cc1)C1CCN(CC[C@H](NC(=O)c2ccccc2)c2cccc(F)c2)CC1 [Compound No. 103, (S)-N-{1-[3-benzoylamino-3-(3-fluorophenyl)propyl]piperidin-4-yl}-N-ethyl-2-(4-methanesulfonyl-phenyl)acetamide] | 0.000437 µM | 
CCN(C(=O)Cc1ccc(S(C)(=O)=O)cc1)C1CCN(CC[C@H](NC(=O)C(F)F)c2ccccc2)CC1 [Compound No. 84, (S)-N-[1-(3-phenyl-3-difluoroacetylaminopropyl)-4-piperidinyl]-N-ethyl-4-methanesulfonylphenylacetamide hydrochloride] | 0.0355 µM | 
CCN(C(=O)Cc1ccc(S(C)(=O)=O)cc1)C1CCN(CC[C@H](NC(=O)c2ccno2)c2ccccc2)CC1 [compound 64] | 0.331 µM | 
CCN(C(=O)Cc1ccc(S(C)(=O)=O)cc1)C1CCN(CC[C@H](NC(=O)c2ccc(S(=O)(=O)NC)cc2)c2ccccc2)CC1 [compound 100] | 0.0234 µM | 
CCN(C(=O)Cc1ccc(S(C)(=O)=O)cc1)C1CCN(CC[C@H](NC(=O)N2CCS(=O)(=O)CC2)c2ccccc2)CC1 [Compound No. 91, (S)-N-[1-(3-phenyl-3-[1,1-dioxothiomorpholin-4-ylcarboxyamino]propyl)-4-piperidinyl]-N-ethyl-4-methanesulfonylphenylacetamide] |  | 7.52
CCN(C(=O)Cc1ccc(S(C)(=O)=O)cc1)C1CCN(CC[C@H](NC(=O)CC(C)(C)C)c2cccc(F)c2)CC1 [Compound No. 106, (S)-N-{1-[3-(3,3-dimethylbutyrylamino)-3-(3-fluorophenyl)propyl]piperidin-4-yl}-N-ethyl-2-(4-methanesulfonyl-phenyl)acetamide] | 0.000562 µM | 
CCN(C(=O)Cc1ccc(S(C)(=O)=O)cc1)C1CCN(CC[C@H](NC(=O)c2csnn2)c2ccccc2)CC1 [compound 63] | 0.0912 µM | 
CCN(C(=O)Cc1ccc(S(C)(=O)=O)cc1)C1CCN(CC[C@H](NC(=O)N2CCSCC2)c2ccccc2)CC1 [Compound No. 83, (S)-N-[1-(3-phenyl-3-[thiomorpholin-4-ylcarboxyamino]propyl)-4-piperidinyl]-N-ethyl-4-methanesulfonylphenylacetamide] |  | 7.97
CCN(C(=O)Cc1ccc(S(C)(=O)=O)cc1)C1CCN(CC[C@H](NC(=O)c2ccc(NS(C)(=O)=O)cc2)c2ccccc2)CC1 [compound 101] | 0.00468 µM | 
CCN(C(=O)Cc1ccc(S(C)(=O)=O)cc1)C1CCN(CC[C@H](NC(=O)C2CCSCC2)c2ccccc2)CC1 [Compound No. 109, (S)-N-[1-(3-phenyl-3-[tetrahydrothiopyran-4-yl-carboxyamino]propyl)-4-piperidinyl]-N-ethyl-4-methanesulfonylphenylacetamide] |  | 9.27
CCN(C(=O)Cc1ccc(S(C)(=O)=O)cc1)C1CCN(CC[C@H](NC(=O)c2ccc(NC(C)=O)nc2)c2ccccc2)CC1 [compound 68] | 0.0661 µM | 
CCN(C(=O)Cc1ccc(S(C)(=O)=O)cc1)C1CCN(CC[C@H](NC(=O)C2CCOC(C)(C)C2)c2ccccc2)CC1 (stereo partly drawn) [Compound No. 81, (s)-N-[1-(3-phenyl-3-[2,2-dimethyltetrahydropyran-4-yl-carboxyamino]propyl)-4-piperidinyl]-N-ethyl-4-methanesulfonylphenylacetamide] |  | 7.7
CCN(C(=O)Cc1ccc(S(C)(=O)=O)cc1)C1CCN(CC[C@H](NC(=O)c2cnc[nH]2)c2ccccc2)CC1 [compound 90] | 0.245 µM | 
CCN(C(=O)Cc1ccc(S(C)(=O)=O)cc1)C1CCN(CC[C@H](NC(=O)c2ccc(C#N)cc2)c2ccccc2)CC1 [compound 94] | 0.0275 µM | 
CCN(C(=O)Cc1ccc(S(C)(=O)=O)cc1)C1CCN(CC[C@H](NC(=O)C(C)CC(F)(F)F)c2ccccc2)CC1 (stereo partly drawn) [compound 87] | 0.0162 µM | 
CCN(C(=O)Cc1ccc(S(C)(=O)=O)cc1)C1CCN(CC[C@H](NC(=O)c2ccc(S(C)(=O)=O)s2)c2ccccc2)CC1 [compound 79] | 0.0282 µM | 
CCN(C(=O)Cc1ccc(S(C)(=O)=O)cc1)C1CCN(CC[C@H](NC(=O)CC(C)(C)O)c2ccccc2)CC1 [compound 110] | 0.0457 µM | 
CCN(C(=O)Cc1ccc(S(C)(=O)=O)cc1)C1CCN(CC[C@H](NC(=O)C2CCOCC2)c2cccc(F)c2)CC1 [compound 105] | 0.00288 µM | 
